Tests used:
[1] = molecular target: T1, Indoleamine 2,3-dioxygenase 1 (Homo sapiens, UniProt P14902); assay: Inhibition of human N-terminal GST-tagged IDO1 expressed in Escherichia coli Rosetta(DE3) pLysS using L-tryptophan as substrate measured after 1 hr by fluorescence assay
[2] = molecular target: T1, Indoleamine 2,3-dioxygenase 1; assay: Inhibition of IDO1 in interferon-gamma-induced human SKOV3 cells assessed as N-formylkynurenine formation using L-tryptophan as substrate measured after 24 hrs by fluorescence assay
[3] = Half life in human liver microsomes; assay type: ADME, Microsome
[4] = Half life in mouse liver microsomes; assay type: ADME, Microsome
[5] = molecular target: T2, UGT1A9 (Homo sapiens, UniProt O60656); assay: Stability assessed as recombinant UGT1A9 (unknown origin) mediated compound glucuronidation by measuring half-life at 1 uM incubated in water bath by shaking at 37 degree C measured upto 60 mins in presence of UDPGA by LC-MS/MS analysis; assay type: ADME
T2 sequence (O60656 whole entry): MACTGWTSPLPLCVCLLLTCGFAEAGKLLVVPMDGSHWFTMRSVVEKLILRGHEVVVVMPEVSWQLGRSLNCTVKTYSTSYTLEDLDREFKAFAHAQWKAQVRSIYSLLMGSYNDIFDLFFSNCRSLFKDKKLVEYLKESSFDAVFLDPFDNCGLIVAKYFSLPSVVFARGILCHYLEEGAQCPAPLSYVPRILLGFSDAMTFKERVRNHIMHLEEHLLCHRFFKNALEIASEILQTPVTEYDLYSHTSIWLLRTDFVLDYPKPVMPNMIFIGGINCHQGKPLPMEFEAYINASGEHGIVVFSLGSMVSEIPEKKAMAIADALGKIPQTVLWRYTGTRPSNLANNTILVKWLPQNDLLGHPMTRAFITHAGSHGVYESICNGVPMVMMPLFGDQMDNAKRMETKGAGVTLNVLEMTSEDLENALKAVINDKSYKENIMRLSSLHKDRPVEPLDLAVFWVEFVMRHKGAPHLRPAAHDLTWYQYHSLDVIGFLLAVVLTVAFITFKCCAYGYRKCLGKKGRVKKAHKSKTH

T1 sequence (P14902 whole entry): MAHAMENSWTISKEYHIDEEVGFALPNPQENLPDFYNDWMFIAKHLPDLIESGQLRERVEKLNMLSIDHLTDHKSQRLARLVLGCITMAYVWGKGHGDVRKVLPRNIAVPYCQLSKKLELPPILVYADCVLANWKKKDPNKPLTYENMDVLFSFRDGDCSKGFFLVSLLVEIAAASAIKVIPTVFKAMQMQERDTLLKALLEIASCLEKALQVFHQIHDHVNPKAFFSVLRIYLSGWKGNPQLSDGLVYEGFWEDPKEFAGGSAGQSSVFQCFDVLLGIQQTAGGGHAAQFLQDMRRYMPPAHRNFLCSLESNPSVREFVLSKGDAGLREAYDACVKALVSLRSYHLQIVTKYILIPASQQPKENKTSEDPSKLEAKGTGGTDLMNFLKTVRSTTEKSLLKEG

Row | IC50 [1] | IC50 [2] | half-life [3] | half-life [4] | half-life at 1 µM [5] | SMILES
1 | 70 nM | 13 nM | 1.28 h | 0.245 h | > 3 h | O=C(NCCSc1nonc1/C(=N/O)Nc1ccc(F)c(C(F)F)c1)C1CS(=O)(=O)C1
2 | 360 nM | 16 nM | 1.97 h | 0.268 h | > 3 h | CC1(C(=O)NCCSc2nonc2/C(=N/O)Nc2ccc(F)c(C(F)F)c2)CCN1 (configuration not stated)
3 | 130 nM | 17 nM | > 3 h | 1.5 h | > 3 h | NS(=O)(=O)CC(=O)NCCSc1nonc1/C(=N/O)Nc1cccc(C(F)F)c1
4 | 61 nM | 14 nM | 2.65 h | 1.25 h | 1.53 h | CS(=N)(=O)CC(=O)NCCSc1nonc1/C(=N/O)Nc1ccc(F)c(Br)c1 (configuration not stated)
5 | 73 nM | 13 nM | 2.77 h | 1.07 h | > 3 h | NS(=O)(=O)CC(=O)NCCSc1nonc1/C(=N/O)Nc1ccc(F)c(C(F)F)c1
6 | 71 nM | 12 nM | 2.37 h | 1.12 h | 0.758 h | NS(=O)(=O)CC(=O)NCCSc1nonc1/C(=N/O)Nc1ccc(F)c(Br)c1
7 | 110 nM | 12 nM | 0.77 h | 0.537 h | 1.33 h | C[C@H](CSc1nonc1/C(=N/O)Nc1ccc(F)c(Br)c1)NC(=O)CS(N)(=O)=O
8 | 560 nM | 15 nM |  |  |  | CSc1nonc1/C(=N/O)Nc1ccc(F)c(Br)c1
9 | 140 nM | 7.6 nM | 2.43 h | 1.66 h | 0.858 h | CS(=O)(=O)CCC(=O)NCCSc1nonc1/C(=N/O)Nc1ccc(F)c(Br)c1
10 | 140 nM | 8.4 nM | 0.937 h | 0.175 h | > 3 h | CC(C)(O)CC(=O)NCCSc1nonc1/C(=N/O)Nc1ccc(F)c(C(F)F)c1
11 | 150 nM | 39 nM | > 3 h | 2.38 h | > 3 h | N#Cc1cc(N/C(=N\O)c2nonc2SCCNC(=O)CS(N)(=O)=O)ccc1F
12 | 270 nM | 9.3 nM | 1.73 h | 0.29 h | 0.357 h | CS(=O)(=O)NCCSc1nonc1/C(=N/O)Nc1ccc(F)c(Br)c1
13 | 240 nM | 44 nM | > 3 h | > 3 h | > 3 h | N#Cc1cccc(N/C(=N\O)c2nonc2SCCNC(=O)CS(N)(=O)=O)c1
